These results are taken from US7645885B2, “Non-steroidal antiandrogens” (The Regents of the University of California, priority 2005, dated 2010).

For this assay, the target named is T1, recombinant rat AR LBD (Rattus norvegicus, UniProt P15207).
T1 construct: recombinant rat AR LBD
T1 sequence (P15207 651-882 limits assumed): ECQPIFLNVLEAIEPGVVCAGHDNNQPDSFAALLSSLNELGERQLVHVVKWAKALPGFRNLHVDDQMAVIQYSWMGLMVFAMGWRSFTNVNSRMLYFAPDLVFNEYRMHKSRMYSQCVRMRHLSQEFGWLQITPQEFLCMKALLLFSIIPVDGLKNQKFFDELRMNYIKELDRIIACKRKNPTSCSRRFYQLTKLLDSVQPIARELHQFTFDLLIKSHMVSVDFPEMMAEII
The experiment in a line: competition fluorescence polarization binding assay. The note with it: relative binding affinity; ratio of Kd of test compound to Kd of DHT multiplied by 100. The protocol: Binding affinity of the synthesized ligands was evaluated by competition fluorescence polarization assay using recombinant rat AR LBD, and the results summarized in Table 1. All ligands with a bulky right-hand extension, such as compounds 18-20 in FIG. 5, performed poorly in this assay, with even the best compounds binding AR only weakly. […] In Table 1, RBA stands for relative binding affinity, and is defined as the ratio of Kd of the test compound to Kd of DHT multiplied by 100.

A value given as a limit tells only on which side of the number the result lay.

Consider `CC12Cc3cn[nH]c3C=C1CCCC2CCCO` (stereo not drawn) [Compound 12, 3-(4α-Methyl-4,4α,5,6,7,8-hexahydro-1H-benzo[f]indazol-5-yl)propan-1-ol], for which the “RBA (DHT = 100)” value was 1. Regarding `CC12Cc3cnoc3C=C1CCCC2CCc1ccc(CO)cc1` (centres unmarked) [Compound 19, {4-[2-(4a-Methyl-4,4a,5,6,7,8-hexahydro-naphtho[2,3-d]isoxazol-5-yl)-ethyl]-phenyl}-methanol], the “RBA (DHT = 100)” value is less than 0.1. With `CC12Cc3cn[nH]c3C=C1CCCC2CCc1ccc(CO)cc1` (centres unmarked) [Compound 18, {4-[2-(4a-Methyl-4,4a,5,6,7,8-hexahydro-1H-benzo[f]indazol-5-yl)-ethyl]-phenyl}-methanol] the figure was less than 0.1. As for `CC12Cc3cnn(-c4ccc(F)cc4)c3C=C1CCCC2CCc1ccc(CO)cc1` (centres unmarked) [Compound 20], the figure is 0.12; as for `CC12Cc3cnn(-c4ccc(F)cc4)c3C=C1CCCC2CCCO` (stereo not drawn) [Compound 16, 3-(1-[4-Fluorophenyl]-4α-Methyl-4,4α,5,6,7,8-hexahydro-1H-benzo[f]indazol-5-yl)propan-1-ol], 19.
